Structures can show the parent of a compound that is named as a salt.
What was measured:
[1] = test system: HbF in primary human erythroid cells; experiment: FACS of HbF positive cells in primary human erythroid progenitors; type: cell-based; settings: DMF 200 μM, MMF 1000 μM, HU 100 μM
Protocol: HU (100 μM; Sigma) was included as a positive control and cell viability was monitored by trypan blue exclusion. Findings in KU812 cells were confirmed in human primary erythroid progenitor cells grown in liquid culture using a published protocol. Globin expression was measured by qPCR also as previously published. HbF protein was measured relative to that of isotype control using FITC conjugated anti-human HbF antibody (1:1000; Santa Cruz Biotechnology, Santa Cruz, Calif.) and fluorescence activated cell sorting (see supplemental methods for details). HbF protein expression was confirmed by Western blot analysis using anti-human HbF antibody (1:1000; Bethyl Laboratories, Inc., Montgomery, Tex.) and horseradish peroxidase-conjugated sheep IgG (1:1000; Santa Cruz).
Erythroid progenitors were generated in vitro from adult CD34^+ stem cells ([…] technologies, Inc. Vancouver, Canada) using a 2-stage culture system that achieves terminal erythroid differentiation18. CD34^+ stem cells (500,000) were grown in First medium consisting of Iscove Modified Dulbecco Media containing human AB serum, interleukin-3 (10 ng/mL), stem cell factor (10 ng/mL) and erythropoietin (2 IU/mL). On day 7, the erythroblasts were placed in Second medium with 2 IU/mL erythropoietin for the duration. […] Then cells were harvested for total RNA and protein for qPCR, FACS and western blot analyses.
After drug treatments, 500,000 cells were washed twice with phosphate buffered saline and then fixed in 4% paraformaldehyde and permeated with ice-cold acetone/methanol (4:1). Cells were incubated with anti-γ-globin-FITC antibody (Santa Cruz Biotechnology, Santa Cruz, Calif.) in PBT (PBS/01% BSA/0.1% triton X100) solution for 20 min to stain intracellular HbF antigens. The labeled cells were analyzed by Bectin Dickerson LSR-II flow cytometer (BD Bioscience). All experiments were performed in triplicate.

[2] = test system: small intestinal cell model; settings: cited from earlier work
[3] = test system: γ-globin promoter; experiment: KU812 dual-luciferase reporter assay of γ-globin promoter activity; type: cell-based, human; settings: for concentration of maximal induction of γ-globin promoter activity: 0-1000 μM, 48 h
Description: (§1) KU812 stable cell lines were created by co-transfecting wild-type KU812 cells with pEGFP-NI (G418 selectable marker) and the μLCRβprRluc AγprFluc dual reporter a kind gifts from Dr. George Stamatoyannopoulos (University of Washington). Briefly, the 315-bp human β-globin gene promoter sequence was inserted upstream of the Renilla along with a polyadenylation signal downstream to create PβprRluc. Likewise, 1.4 kb of human aγ-globin promoter was inserted upstream of firefly luciferase to create AγprFluc. The μLCR (locus control region), PβprRluc, and AγprFluc fragments were subsequently cloned into the mammalian vector, pRL-null. The dual-luciferase reporter lines were produced using 10 μg each of linearized μLCRβprRluc AγprFluc and pEGFP-NI plasmids co-transfected into KU812 cells by electroporation at 260 V, 975 μF (Bio-Rad, Hercules Calif.). After 72 hr, G418 was added at a concentration of 900 μg/μl for 3 days then maintained under selection pressure indefinitely at a concentration of 400 μg/μl. […] FK228 and analogues were screened at concentrations between 1-1000 nM for 48 hr and cell toxicity was monitored by 2% Trypan blue exclusion. The effect of drug treatments on γ-globin and β-globin promoter activity was monitored by luciferase assay.
Luciferase activity was monitored under the different experimental conditions using the Dual Luciferase Assay Reporter System (Promega, Madison, Wis.). The activity of firefly luciferase represents γ-globin promoter activity (γF), while the renilla luciferase is the read-out for β-globin promoter activity (βR). […] After drug treatments, KU812 stable cells were washed with 1× phosphate buffered saline and lysed in 1× Passive Lysis Buffer for 15 min, then protein extracts were added to the Luciferase Assay Reagent II and firefly luciferase activity quantified in a Turner Designs TD-20/20 luminometer (Sunnyvale, Calif.). […] Total protein was determined by Bradford assay on a Beckman DU 640 spectrophotometer (Chaska, Minn.) and luciferase activity was corrected for total protein. […]

[4] = test system: OCTN1; experiment: OCTN1 mRNA expression in ARPE-19 cells; type: cell-based, human; settings: RPE (ARPE-19) cells; MMF 1000 μM, HU 100 μM
Description: Red blood cells, cells of erythroid lineage, are the primary producers of hemoglobin. […] The includes retinal pigment epithelial (RPE) cells, a cell type critical to normal visual function. […] Data are represented as mean±SEM; *p<0.05.

[5] = test system: γ-globin gene expression in primary RPE cells; experiment: γ-globin/HbF expression in primary RPE cells from humanized mice; type: cell-based, mouse; settings: ARPE-19 and primary RPE cells (FIGS. 8B, 8D, 8E, 11)
Protocol: The effect of MMF on primary RPE cells was also investigated. RPE cells were isolated from the eyes of humanized mice and used to establish primary RPE cell cultures. […] Primary RPE cells were cultured in the presence or absence of MMF at concentrations ranging from 0-1000 μM for a period of 9 hours. Total RNA was prepared and γ-globin gene expression analyzed by qPCR. […] Data are represented as mean±SEM; *P<0.01, **P<0.001.
Identical experiments were performed using the human RPE cell line ARPE-19, an established model for the study of RPE19, and primary RPE cell cultures established from the eyes of HbAA- and HbSS-expressing Townes humanized knock-in SCD mice (Jackson Laboratories, Bar Harbor, Me.) per our published method. Additionally, MMF (1 mM final concentration) or PBS (control) was injected intravitreally into the eyes of HbAA and HbSS mice and retinal γ-globin and HbF expression analyzed by qPCR and immunofluorescence 24 h post-injection. Animal studies were approved by the Georgia Regents University Institutional Committee for Animal Use in Research and Education.
HbF protein production in ARPE-19 cells exposed to MMF (1000 μM) for 24 h was evaluated using a FITC-conjugated HbF antibody and fluorescence microscopy (data not shown). Cell nuclei were counterstained with DAPI. […]

[6] = test system: γ-globin gene expression in KU812 cells; experiment: γ-globin gene expression by qPCR in KU812 cells; type: cell-based, human; settings: 100 μM, depending upon the incubation time (3-24 h)
Protocol: KU812 cells were cultured in the presence or absence of MMF for time periods ranging from 0-24 hours and evaluated for changes in γ-globin gene expression relative to 18S ribosomal RNA expression (internal experimental control) by qPCR (FIG. 1). In comparison to control, untreated (UT) cells, significant increases in γ-globin gene expression were observed as early as 3 hours post-incubation with low-does (100 μM) MMF treatment. This MMF-induced increase in γ-globin expression persisted up to 24 h post-exposure to the compound. Data in FIG. 1 are represented as means±standard error of the mean (SEM); *P<0.05, **P<0.01 and ***P<0.001.
FIG. 2 is reproduced from MaKala et al., Anemia, Volume 2012, Article ID 428137) (2012). […] At 100 μM, the same concentration that we used for MMF, HU induces γ-globin gene expression ˜2-fold.

[7] = test system: γ/β-globin mRNA in primary human erythroid cells; experiment: γ/β-globin mRNA by qPCR in primary human erythroid progenitors; type: cell-based; settings: DMF 200 μM, MMF 1000 μM
Protocol: HU (100 μM; Sigma) was included as a positive control and cell viability was monitored by trypan blue exclusion. Findings in KU812 cells were confirmed in human primary erythroid progenitor cells grown in liquid culture using a published protocol. Globin expression was measured by qPCR also as previously published. HbF protein was measured relative to that of isotype control using FITC conjugated anti-human HbF antibody (1:1000; Santa Cruz Biotechnology, Santa Cruz, Calif.) and fluorescence activated cell sorting (see supplemental methods for details). HbF protein expression was confirmed by Western blot analysis using anti-human HbF antibody (1:1000; Bethyl Laboratories, Inc., Montgomery, Tex.) and horseradish peroxidase-conjugated sheep IgG (1:1000; Santa Cruz). Erythroid progenitors were generated in vitro from adult CD34^+ stem cells ([…] technologies, Inc. Vancouver, Canada) using a 2-stage culture system that achieves terminal erythroid differentiation18. CD34^+ stem cells (500,000) were grown in First medium consisting of Iscove Modified Dulbecco Media containing human AB serum, interleukin-3 (10 ng/mL), stem cell factor (10 ng/mL) and erythropoietin (2 IU/mL). On day 7, the erythroblasts were placed in Second medium with 2 IU/mL erythropoietin for the duration. […] Then cells were harvested for total RNA and protein for qPCR, FACS and western blot analyses.

[8] = test system: KU812 cells; type: cell-based; settings: human, 48 h
Description: as §1, with “pRL-null.” for “pRL-null. The dual-luciferase reporter lines were produced using 10 μg each of linearized μLCRβprRluc AγprFluc and pEGFP-NI plasmids co-transfected into KU812 cells by electroporation at 260 V, 975 μF (Bio-Rad, Hercules Calif.). After 72 hr, G418 was added at a concentration of 900 μg/μl for 3 days then maintained under selection pressure indefinitely at a concentration of 400 μg/μl.”
Luciferase activity, an indicator of γ-globin promoter induction, was monitored KU812 μLCRβprRlucγprFluc—stable cells cultured in the presence of absence (untreated control, UT) of MMF at varying dosages for 48 hour according to the method discussed above and in MaKala et al., Anemia, Volume 2012, Article ID 428137) (2012).
HU (100 μM; Sigma) was included as a positive control and cell viability was monitored by trypan blue exclusion. […] Globin expression was measured by qPCR also as previously published. […]

[9] = single doses, healthy adults, cited from earlier work

COC(=O)/C=C/C(=O)OC [DMF, dimethyl fumarate]
increase in HbF positive cells (FACS) [1]: 28 fold
permeability ([2]; in vitro small intestinal cell model): high permeability
metabolism in the intestinal tissue ([2]; intestinal tissue): complete metabolism
concentration of maximal induction of γ-globin promoter activity [3]: 200 µM
effectiveness as inducer of γ-globin promoter activity at higher concentrations ([3]; concentrations higher than 100-200 μM): declined substantially

NC(=O)NO [HU, hydroxyurea]
increase in HbF positive cells (FACS) [1]: 15 fold
OCTN1 expression [4]: little to no effect
γ-globin expression and HbF production in RPE cells [5]: induction of γ-globin expression and HbF production

COC(=O)/C=C/C(=O)O [MMF, monomethyl fumarate]
increase in HbF positive cells (FACS) [1]: 32 fold
γ-globin gene expression, fold increase vs untreated [6]: 2-4 fold
γ/β-globin mRNA induction [7]: 8 fold
concentration of maximal induction of γ-globin promoter activity [3]: 1000 µM
Cell viability by Trypan blue exclusion [8]: 90-95%

CCN(CC)C(=O)COC(=O)/C=C/C(=O)OC [XP23829]
tolerability ([9]; four oral formulations): generally well-tolerated
levels of MMF in the blood [9]: expected levels of MMF in the blood
